Assay results reported in patent US20240115496A1, “A COMPOUND DRY POWDER INHALANT AND USE THEREOF” (TIANJIN UNIVERSITY OF TRADITIONAL CHINESE MEDICINE, priority 2021, published 2024).
Where a name gives a salt, the structure may show the parent alone.

Experiments:
[1] = In vivo pharmacokinetics, lung tissue homogenate (UPLC-MS/MS); set-up: species or system rat; conditions: for CL/F (clearance) / Cmax / Tmax / half-life / MRT last: AH in rat lung tissue; for concentration at 2 min / concentration at 4 min / concentration at 10 min / concentration at 15 min / concentration at 30 min / concentration at 60 min / concentration at 120 min / concentration at 240 min / concentration at 360 min / Cmax / Tmax / half-life / MRT last: male; for concentration at 2 min / concentration at 4 min / concentration at 10 min / concentration at 15 min / concentration at 30 min / concentration at 60 min / concentration at 120 min / concentration at 240 min / concentration at 360 min: rat lung tissue homogenate, read-out: Drug concentration of AH in lung tissue; for Cmax / Tmax / half-life / MRT last: lung tissue (homogenate supernatant); for half-life: read-out: HLz (biological half-life) (converted); for MRT last: read-out: MRTlast (mean retention time)
Experimental: (§1) SPF-grade healthy SD male rats, body weight 180-220 g, purchased from SPF (Beijing) Biotechnology Co., Ltd (Certificate No. SCXK (Beijing) 2019-0010), were conventionally reared under (23±2)° C., humidity: (50±10)%. This study was conducted with the approval of the Animal Experiment Center of Tianjin University of Traditional Chinese Medicine.
(§2) 108 SPF-grade SD male rats were randomly divided into tail intravenous injection group and pulmonary administration group, with 9 time points of 2 min, 4 min, 10 min, 15 min, 30 min, 1 h, 2 h, 4 h and 6 h per group, 6 rats per time point per group. The rats were fasted for 12 h before the experiment, with water provided. The rats were weighed (to calculate the dose) and numbered, and both groups were intraperitoneally injected with 10% chloral hydrate at a dose of 2 mL/kg. Group 1 was administered BA/AH-DPI saline solution by tail intravenous injection at a dose of 9 mg/kg. Group 2 was administered 3 mg of BA/AH-DPI fine powder at the same dose by spray administration with a DP-4 tracheal insufflator (1.5 mL of air was pushed each time, 3-4 times consecutively). Blood was sampled from the abdominal aorta of the rats in both groups at the above time points after drug administration, and the rats were executed. The obtained whole blood was placed in a centrifuge tube with sodium heparin, centrifuged at 4000 r/min for 10 min, and the upper layer of plasma was separated and stored a refrigerator at −80° C. After blood collection, the thoracic cavity was quickly opened and the lungs of the rats were isolated. The small amount of floating blood on the surface of the lung tissue was washed with saline in an ice bath. The surface of the lung tissue was blotted with filter paper. The trachea was cut off, wrapped in tin foil and placed in a 10 mL centrifuge tube. The lung was weighed precisely, and stored in a refrigerator at −80° C.
The lung tissues were added to saline in a weight to volume ratio of 1:4 (g:mL). A homogenate was obtained by beating, dispersing and evenly grinding with a homogenizer under an ice water bath, and centrifuged at 6500 r/min for 20 min to obtain the supernatant of the lung tissue homogenate.
(§3) 100 μL of the plasma sample or lung tissue supernatant was precisely absorbed, and 200 μL (100 ng/mL) of methanol solution containing the internal standard was added. The mixture was vortexed and mixed for 3 min, and centrifuged at 12000 r/min for 10 min to obtain the supernatant as the finished sample. The contents of BA and AH were determined by UPLC-MS/MS method.
(§4) Electrospray ion source (ESI source); scan mode: positive (ESI+) detection; detection mode: multi-reactive ion monitoring (MRM). Electrospray voltage: 4 kV; atomization gas: N2; spray gas flow rate (Gas1): 15 psi; ion source temperature: 300° C.
(§5) Meaning of pharmacokinetic parameters: HLz was the biological half-life, i.e., the time required for the amount or blood concentration of the drug in the body to decrease by half; Tmax was the time to peak, i.e., the time required to reach the peak concentration of the drug after administration. Cmax was the peak drug concentration, i.e., the highest blood concentration that occurred after administration of the drug. AUC was the area enclosed by the blood drug concentration curve against the time axis. Vz/F was the apparent volume of distribution, the ratio constant of the amount of drug in the body to the blood concentration when the drug reached dynamic equilibrium in the body. CL/F was the clearance, i.e., the number of apparent volume of distribution of the drug removed from the body per unit time. AUMC was the first order moment of the drug-time curve, i.e. the area under the curse of the product of time and blood concentration versus time. MRTlast was the mean retention time, i.e., the average of the residence time of drug molecules in the body.

[2] = Particle size distribution test, laser particle size analyzer, dry dispersion; format: physicochemical
Experimental: The particle size distribution of DPI dry powder was measured by dry dispersion method using laser particle size analyzer, and Dv10, Dv50, Dv90, VMD (Volume median diameter) and SMD (Sauter mean diameter) were determined, respectively.

[3] = In vivo pharmacokinetics, plasma (UPLC-MS/MS); set-up: species or system rat; conditions: for half-life: read-out: HLz (biological half-life) (converted); for MRT last: read-out: MRTlast (mean retention time); for concentration at 2 min / concentration at 10 min / concentration at 15 min / concentration at 30 min / concentration at 60 min / concentration at 120 min / concentration at 240 min / concentration at 360 min / concentration at 4 min: read-out: Blood concentration of AH
Experimental: as §1, §2, §3, §4, §5

[4] = Sprague-Dawley (SD), inhaled, pulmonary administration BA/AH-DPI 9 mg/kg
[5] = Sprague-Dawley (SD), inhaled or intranasal, pulmonary administration group, BA/AH-DPI 9 mg/kg
[6] = Sprague-Dawley (SD), tail intravenous injection group, 9 mg/kg
[7] = Sprague-Dawley (SD), tail intravenous injection BA/AH-DPI saline solution 9 mg/kg
[8] = male, SD, inhaled or intranasal, AH in rat plasma, pulmonary administration group, BA/AH-DPI 9 mg/kg
[9] = male, SD, inhaled, rat plasma, pulmonary administration BA/AH-DPI 9 mg/kg
[10] = male, SD, AH in rat plasma, tail intravenous injection group, 9 mg/kg
[11] = male, SD, rat plasma, tail intravenous injection BA/AH-DPI saline solution 9 mg/kg
[12] = male, Sprague-Dawley (SD), rat plasma, tail intravenous injection BA/AH-DPI saline solution 9 mg/kg

In the case of Nc1c(Br)cc(Br)cc1CNC1CCC(O)CC1 (stereo not drawn) [AH, ambroxol hydrochloride], the “CL/F (clearance)” value ([1]; pulmonary administration group, BA/AH-DPI 9 mg/kg) is reported as 876.24 ± 146.55 g/h/kg, the “CL/F (clearance)” value ([1]; tail intravenous injection group, 9 mg/kg) is reported as 1454.72 ± 257.24 g/h/kg and the concentration at 2 min ([1]; SD, tail intravenous injection BA/AH-DPI saline solution 9 mg/kg) is reported as 3230 ± 973 ng/mL. The concentration at 2 min [1, 4] was 7610 ± 1750 ng/mL, the concentration at 4 min [1, 4] was 5150 ± 879 ng/mL and the concentration at 10 min [1, 4] was 2450 ± 384 ng/mL. For the same molecule, the concentration at 15 min [1, 4] was 1320 ± 524 ng/mL, the concentration at 30 min [1, 4] was 798 ± 289 ng/mL and the concentration at 60 min [1, 4] was 503 ± 200 ng/mL. For the same molecule, the concentration at 120 min [1, 4] was 256 ± 139 ng/mL, the concentration at 240 min [1, 4] was 153 ± 60 ng/mL and the concentration at 360 min [1, 4] was 66.2 ± 38.2 ng/mL. It also gave a Cmax [1, 5] of 30400 ± 6970 ng/g, a Tmax [1, 5] of 2.34 ± 0.78 min and a half-life [1, 5] of 91.8 ± 26.4 min. For the same molecule, the MRT last [1, 5] was 72.6 ± 12 min, the Cmax [1, 6] was 12900 ± 3890 ng/g and the Tmax [1, 6] was 1.98 min. The half-life [1, 6] was 72.6 ± 11.4 min, the MRT last [1, 6] was 60.6 ± 7.2 min and the concentration at 4 min [1, 7] was 1780 ± 454 ng/mL. For the same molecule, the concentration at 10 min [1, 7] was 1230 ± 183 ng/mL, the concentration at 15 min [1, 7] was 1030 ± 210 ng/mL and the concentration at 30 min [1, 7] was 780 ± 243 ng/mL. The concentration at 60 min [1, 7] was 352 ± 83.1 ng/mL, the concentration at 120 min [1, 7] was 135 ± 58.9 ng/mL and the concentration at 240 min [1, 7] was 68.4 ± 24.5 ng/mL. For the same molecule, the concentration at 360 min [1, 7] was 23.4 ± 10.5 ng/mL, the D10 [2] was 0.77 μm and the D50 [2] was 3.07 μm. For the same molecule, the D90 [2] was 8.43 μm, the “SMD (Sauter mean diameter)” value [2] was 1.79 μm and the “VMD (Volume median diameter)” value [2] was 3.93 μm. For the same molecule, the “<3 μm” value ([2]; fraction of particles) was 49.10%, the “<5 μm” value ([2]; fraction of particles) was 70.30% and the “CL/F (clearance)” value ([3]; AH in rat plasma, tail intravenous injection group, 9 mg/kg) was 169.3805 ± 53.272 mL/min/kg. The Cmax [3, 8] was 1770 ± 382 ng/mL, the CL/F ([3]; male, SD, inhaled or intranasal, AH in rat plasma, pulmonary administration group, BA/AH-DPI 9 mg/kg, read-out: CL/F (clearance) (converted)) was 237 mL/min/kg and the half-life [3, 8] was 109 ± 39.6 min. For the same molecule, the MRT last [3, 8] was 49.8 ± 6 min, the Vd/F ([3]; male, SD, inhaled or intranasal, AH in rat plasma, pulmonary administration group, BA/AH-DPI 9 mg/kg, read-out: Vz/F (apparent volume of distribution)) was 37.2 ± 15.6 L/kg and the bioavailability ([3]; male, SD, inhaled, rat plasma, pulmonary administration of BA/AH-DPI vs tail intravenous injection, 9 mg/kg, read-out: Absolute bioavailability) was 53.5%. For the same molecule, the concentration at 2 min [3, 9] was 763 ± 101 ng/mL, the concentration at 10 min [3, 9] was 1130 ± 170 ng/mL and the concentration at 15 min [3, 9] was 464 ± 191 ng/mL. For the same molecule, the concentration at 30 min [3, 9] was 280 ± 75.8 ng/mL, the concentration at 60 min [3, 9] was 124 ± 35.3 ng/mL and the concentration at 120 min [3, 9] was 40.2 ± 21.1 ng/mL. It also gave a concentration at 240 min [3, 9] of 21 ± 6.64 ng/mL, a concentration at 360 min [3, 9] of 8.57 ± 0.38 ng/mL and a Cmax [3, 10] of 3300 ± 1440 ng/mL. It also gave a Tmax [3, 10] of 1.98 min, a half-life [3, 10] of 146 ± 53.4 min and an MRT last [3, 10] of 49.2 ± 10.2 min. For the same molecule, the concentration at 10 min [3, 11] was 395 ± 142 ng/mL, the concentration at 15 min [3, 11] was 306 ± 140 ng/mL and the concentration at 30 min [3, 11] was 252 ± 116 ng/mL. It also gave a concentration at 60 min [3, 11] of 148 ± 58.7 ng/mL, a concentration at 120 min [3, 11] of 49.4 ± 23 ng/mL and a concentration at 240 min [3, 11] of 33.9 ± 12.2 ng/mL. It also gave a concentration at 360 min [3, 11] of 18.9 ± 6.61 ng/mL, a Tmax ([3]; male, Sprague-Dawley (SD), inhaled or intranasal, AH in rat plasma, pulmonary administration group, BA/AH-DPI 9 mg/kg) of 4.02 min and a concentration at 4 min ([3]; male, Sprague-Dawley (SD), inhaled, rat plasma, pulmonary administration BA/AH-DPI 9 mg/kg) of 1770 ± 382 ng/mL. The concentration at 2 min [3, 12] was 3300 ± 1690 ng/mL, the concentration at 4 min [3, 12] was 598 ± 233 ng/mL and the “Time of maximum blood concentration in plasma” value ([3]; rat, pulmonary administration of BA/AH-DPI 9 mg/kg) was 4 min.
